What was measured:
[1] = test system: drug sensitive D6 clone of P. falciparum; test: SYBR Green I fluorescence-based antiplasmodial assay, D6; format: cell-based, Plasmodium falciparum; conditions: P. falciparum D6, 72 hours
Experimental: (§1) Laboratory strains of P. falciparum were cultured in human erythrocytes by standard methods (Trager, W.; Jensen, J. B. Human malaria parasites in continuous culture. Science 1976, 193 (4254), 673-675. DOI: 10.1126/science.781840 from NLM Medline). The parasites were grown in culture medium with fresh human erythrocytes maintained at 2% hematocrit at 37° C. in low-oxygen conditions (5% 02, 5% CO2, 90% N2). The culture medium used was RPMI-1640 with 25 mg/L gentamicin sulfate, 45 mg/L Albumax II, 10 mM glucose, and 25 mM HEPES buffer (Smilkstein et al., Simple and inexpensive fluorescence-based technique for high-throughput antimalarial drug screening. Antimicrob Agents Chemother 2004, 48 (5), 1803-1806. DOI: 10.1128/aac.48.5.1803-1806.2004). Cultures were maintained at less than 10% parasitemia by transfer of infected cells to fresh erythrocytes and culture medium every 3 or 4 days. […]
(§2) In vitro antimalarial activity was measured using the SYBR Green I fluorescence-based assay. […] Experiments were set up in quadruplicate in 96-well plates with a 100 μL total volume per well with 2% hematocrit, 0.2% parasitemia, and drug dilutions between 0.25 and 250 nM in complete culture medium described above. The plates were incubated at 37° C. in low-oxygen conditions described previously for 72 hours, at which point 100 μL of fluorescent dye-detergent mixture (0.2 μL SYBR Green I: 1 mL lysing buffer) was added and the plates incubated in the dark at room temperature for one hour. After incubation with the fluorescent dye, a 96-well plate reader with excitation wavelength set at 497 nm and emission at 520 nm, was used to measure fluorescence of each well.
(§3) Each of the ADC derivatives was tested for antiplasmodial activity against the drug sensitive D6 clone of P. falciparum as well as one or more of the following multidrug resistant strains: Dd2 or 7G8. The method used for antiplasmodial testing is known as the SyBr Green assay and it was described by us in 2004 (Smilkstein et al., Antimicrob Agents Chemother 2004, 48 (5), 1803-1806).

[2] = test system: multi-drug resistant (Dd2) P. falciparum; test: SYBR Green I fluorescence-based antiplasmodial assay, Dd2; format: cell-based, Plasmodium falciparum; conditions: for IC50: P. falciparum Dd2, 72 hours; for cross resistance, Dd2 vs D6: ratio of IC50 in Dd2 and D6 strains
Experimental: as §1, §2, §3

[3] = Metabolic stability in pooled murine liver microsomes; format: in vitro ADME; conditions: for half-life: mouse
Experimental: (§4) In vivo efficiency: ADCs antiplasmodial efficiency (ED50, ED90) assessed in murine malaria model against P. yoelii (Py). Metabolic stability: ADCs were assessed for metabolic stability (t1/2, Clint) in pooled murine liver microsomes. Referring to Table 1, ND=not detected.

[4] = HepG2 cytotoxicity assay (resazurin); format: cell-based; conditions: human, HepG2 cells; HepG2, 24 h drug then 24 h drug-free; read-out: CC50 v HepG2
Experimental: Final compounds were assessed for mammalian cytotoxicity using an immortalized human liver carcinoma cell line (HepG2) using previously described methods.^1 In short, final compounds were prepared in DMSO as 10 mM stock solutions. […] To 96-well flat-bottomed tissue culture plates, HepG2 cells were added at 2×10 4 density with an additional 160 μL of complete culture media per well and were incubated overnight at 37° C. to allow for adherence. Compound stocks aliquots were applied as 40 μL solutions in complete media to each well in a serial dilution series that ranged from […] as duplicates. A 10 mM DMSO stock of mefloquine was used as a positive control. […] 20 μL of resazurin (Alamar Blue) in PBS buffer was added to each well to a final concentration of 10 μM, and the plates were incubated for 3 h. Fluorescence was measured at 560 nm excitation and 590 nm emission bands using a Spectramax iD3 plate reader. Fluorescence output values were normalized to the untreated control wells and plotted against the logarithm of drug concentration.

Plasmodium yoelii = test: In vivo efficacy against murine malaria, modified 4-day test; conditions: for ED50 (mg/kg/d) vs Py / ED90 (mg/kg/d) vs Py: P. yoelii in mice, oral once daily for 4 days, PEG-400
Experimental: as §4
Selected ADC derivatives were also tested in vivo in mice using the standard 4-day test protocol as described previously. For this work the rodent malaria parasite Plasmodium yoelii was used and the mice were CF1 female. Briefly, animals were inoculated with 35,000 parasitized red blood cells (obtained from a donor animal) on Day 0 of the experiment. Beginning on the next day (Day 1) and again on the 3 succeeding days (Days 2, 3, and 4) the animals received oral doses of the test agent dissolved in the dosing vehicle PEG-400. On Day 5 a blood sample was taken from the tail vein and examined microscopically for the presence of parasites using Giemsa stained and methanol fixed blood smears.
The in vivo efficacy of selected ADC derivatives was determined against blood-stage Plasmodium yoelii using a modified 4-day test. Female mice (Charles River Laboratories) were infected intravenously with 35,000 P. yoelii parasitized erythrocytes from a donor animal (Kenya MR4 MRA-428). […] Five days after inoculation, percent parasitemia was calculated by examination of Giemsa-stained blood smears.

[5] = Plasmodium falciparum, D6, 72 h
[6] = Plasmodium falciparum, DD2, 72 h

Structure (SMILES)	IC50 [1, 5] [nM]	IC50 [2, 6] [nM]	cross resistance, Dd2 vs D6 [2]	CIint [3] [mL/min/kg]	half-life [3] [min]	CC50 at 24 h [4] [nM]	IC50 [1] [nM]	IC50 [2] [nM]	ED50 (mg/kg/d) vs Py (Plasmodium yoelii) [mg/kg/day]	ED90 (mg/kg/d) vs Py (Plasmodium yoelii) [mg/kg/day]	T1/2 (min) [3]	ED50 (Plasmodium yoelii; P. yoelii, CF1 female mice, 4-day test, oral in PEG-400) [mg/kg/day]
Clc1ccc2c(Nc3ccc(N4CCN(Cc5ccccc5)CC4)cc3)ccnc2c1 [ADC-008, N-(4-(4-benzylpiperazin-1-yl)phenyl)-7-chloroquinolin-4-amine]	16.1	15.9	Equipotency	391.9	13.9	> 200000						
CCN1CCN(c2ccc(Nc3ccnc4cc(Cl)ccc34)cc2)CC1 [ADC-009, 7-chloro-N-(4-(4-ethylpiperazin-1-yl)phenyl)quinolin-4-amine]	~13	~13		2936	1.86	> 200000	13.2	12.7	1.5	8.4		
CN1CCN(c2ccc(Nc3ccnc4cc(Cl)ccc34)cc2)CC1 [ADC-010, 7-chloro-N-(4-(4-methylpiperazin-1-yl)phenyl)quinolin-4-amine]	13.3	14	Equipotency	3784	1.44	185000						
Clc1ccc2c(Nc3ccc(N4CCNCC4)cc3)ccnc2c1 [ADC-011, 7-chloro-N-(4-(piperazin-1-yl)phenyl)quinolin-4-amine]	21.8	65.8				54000						
CC(C)(C)OC(=O)N1CCN(c2ccc(Nc3ccnc4cc(Cl)ccc34)cc2)CC1 [ADC-012, tert-butyl 4-(4-((7-chloroquinolin-4-yl)amino)phenyl)piperazine-1-carboxylate]						> 200000						
Clc1ccc2c(Nc3ccc(N4CCN(C5CC5)CC4)cc3)ccnc2c1 [ADC-013, 7-chloro-N-(4-(4-cyclopropylpiperazin-1-yl)phenyl)quinolin-4-amine]	39.2	84.4				> 200000						
CCN1CCN(c2ccc(Nc3ccnc4ccc(Cl)cc34)cc2)CC1 [ADC-014, 6-chloro-N-(4-(4-ethylpiperazin-1-yl)phenyl)quinolin-4-amine]	69.8	66	Equipotency			> 200000						
Clc1ccc2c(Nc3ccc(C4CCNCC4)cc3)ccnc2c1 [ADC-015, 7-chloro-N-(4-(piperidin-4-yl)phenyl)quinolin-4-amine]	10.2	75.2				58000						
CC(C)(C)N1CCN(c2ccc(Nc3ccnc4cc(Cl)ccc34)cc2)CC1 [ADC-017, N-(4-(4-(tert-butyl)piperazin-1-yl)phenyl)-7-chloroquinolin-4-amine]	5.18	9.17		0.00		> 200000			4.0	7.6	∞	
FC(F)(F)c1ccc(N2CCN(c3ccc(Nc4ccnc5cc(Cl)ccc45)cc3)CC2)cc1 [ADC-018, 7-chloro-N-(4-(4-(4-(trifluoromethyl)phenyl)piperazin-1-yl)phenyl)quinolin-4-amine]	43.3	110				> 200000						
CCN1CCC(c2ccc(Nc3ccnc4cc(Cl)ccc34)cc2)CC1 [ADC-020, 7-chloro-N-(4-(1-ethylpiperidin-4-yl)phenyl)quinolin-4-amine]	4.56	13.4		496.7	11	111000			1.8	13.4		
CC(C)N1CCC(c2ccc(Nc3ccnc4cc(Cl)ccc34)cc2)CC1 [ADC-021, 7-chloro-N-(4-(1-isopropylpiperidin-4-yl)phenyl)quinolin-4-amine]	4.94	11.6		123.6	44.1	> 200000			1.1	4.1		1.1
CCN1CCN(c2ccc(Nc3ccnc4cc(C(F)(F)F)ccc34)cc2)CC1 [ADC-024, N-(4-(4-ethylpiperazin-1-yl)phenyl)-7-(trifluoromethyl)quinolin-4-amine]						> 200000						
CCN1CCN(c2ccc(Nc3ccnc4cc(Br)ccc34)cc2)CC1 [ADC-025, 7-bromo-N-(4-(4-ethylpiperazin-1-yl)phenyl)quinolin-4-amine]	10.3	19.2				48000						
CCCN1CCC(c2ccc(Nc3ccnc4cc(Cl)ccc34)cc2)CC1 [ADC-026, 7-chloro-N-(4-(1-propylpiperidin-4-yl)phenyl)quinolin-4-amine]	9.25	19.3		78.0	70	> 200000						
CCCCN1CCC(c2ccc(Nc3ccnc4cc(Cl)ccc34)cc2)CC1 [ADC-027, N-(4-(1-butylpiperidin-4-yl)phenyl)-7-chloroquinolin-4-amine]	9.03	20.4		129.7	42.1	> 200000						
CCC(C)N1CCC(c2ccc(Nc3ccnc4cc(Cl)ccc34)cc2)CC1 (stereo not drawn) [ADC-029, N-(4-(1-(sec-butyl)piperidin-4-yl)phenyl)-7-chloroquinolin-4-amine]	13.8	19		98.3	55.5	> 200000						
CC(C)CN1CCN(c2ccc(Nc3ccnc4cc(Cl)ccc34)cc2)CC1 [ADC-030, 7-chloro-N-(4-(4-isobutylpiperazin-1-yl)phenyl)quinolin-4-amine]	9.79	17.8		391.9	13.9	> 200000						

— patent US20240182423A1, “4-AMINOQUINOLINES FOR TREATMENT OF MULTIDRUG RESISTANT MALARIA” (United States Government as represented by the Department …, priority 2022, published 2024)
